One test has as its target Cannabinoid receptor 2 (Homo sapiens, UniProt P34972).
The next test concerns the target Cannabinoid receptor 1 (Homo sapiens, UniProt P21554).

Sequence of Cannabinoid receptor 1 (P21554 whole entry): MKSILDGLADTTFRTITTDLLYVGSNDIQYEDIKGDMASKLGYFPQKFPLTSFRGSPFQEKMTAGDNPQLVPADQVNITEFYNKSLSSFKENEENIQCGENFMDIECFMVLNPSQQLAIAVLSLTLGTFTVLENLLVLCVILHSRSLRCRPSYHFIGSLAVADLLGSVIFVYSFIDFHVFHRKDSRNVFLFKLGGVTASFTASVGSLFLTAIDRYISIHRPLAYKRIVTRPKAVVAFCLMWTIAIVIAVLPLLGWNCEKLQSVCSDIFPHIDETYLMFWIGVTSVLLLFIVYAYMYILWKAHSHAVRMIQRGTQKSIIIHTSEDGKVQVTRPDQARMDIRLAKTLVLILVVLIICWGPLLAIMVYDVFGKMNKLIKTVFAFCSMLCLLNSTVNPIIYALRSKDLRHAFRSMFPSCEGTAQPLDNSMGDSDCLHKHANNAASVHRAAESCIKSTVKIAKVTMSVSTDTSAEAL
Sequence of Cannabinoid receptor 2 (P34972 whole entry): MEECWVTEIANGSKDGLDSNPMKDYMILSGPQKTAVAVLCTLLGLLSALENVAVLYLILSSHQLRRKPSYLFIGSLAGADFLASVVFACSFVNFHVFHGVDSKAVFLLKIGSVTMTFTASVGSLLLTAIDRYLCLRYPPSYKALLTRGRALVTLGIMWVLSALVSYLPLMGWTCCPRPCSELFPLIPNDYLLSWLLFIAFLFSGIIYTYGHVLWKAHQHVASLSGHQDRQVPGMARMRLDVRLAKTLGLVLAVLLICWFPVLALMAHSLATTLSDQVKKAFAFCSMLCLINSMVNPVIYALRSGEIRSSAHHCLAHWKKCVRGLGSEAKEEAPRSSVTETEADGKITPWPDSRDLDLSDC

The Ki is the dissociation constant of the complex between target and ligand, obtained from inhibition or displacement. On to `CCc1c(C(=O)NN2CCCCC2)nn(-c2ccc(Cl)cc2Cl)c1-c1ccc(Br)cc1` [SR 147778], for which the Ki at Cannabinoid receptor 2 was determined as 442 nM; at Cannabinoid receptor 1, 3.5 nM.
